The values below come from patent US7056903B2, “Carboxylic acid derivatives as IP antagonists” (Syntex (U.S.A.) LLC, priority 2000, dated 2006).

One may read the melting point as the temperature, or range, at which the solid turns liquid.

`O=C(NC(Cc1cccc(NS(=O)(=O)c2ccccc2)c1)C(=O)O)OCc1cc2cc(-c3ccccc3)ccc2o1` (stereo not drawn) [Compound 171, 3-(3-Benzenesulfonylamino-phenyl)-2-(5-phenyl-benzofuran-2-ylmethoxycarbonylamino)-propionic acid] gave a melting point of 105 to 108 °C.

Turning to `O=C(NC(Cc1ccccc1)C(=O)O)OCc1coc2ccc(-c3ccccc3)cc12` (stereo not drawn) [Compound 172, 2-(5-Phenyl-benzofuran-3-ylmethoxycarbonylamino)-3-phenyl-propionic acid], the melting point lay in the range of 177.6 to 178.6 °C.

Regarding `O=C(NC(Cc1cncnc1)C(=O)O)OCc1cc2cc(-c3ccccc3)ccc2o1` (stereo not drawn) [Compound 173, 2-(5-phenyl-benzofuran-2-ylmethoxycarbonylamino)-3-pyrimidin-5-yl-propionic acid], the melting point lay within 181.4 to 184.5 °C.

In the case of `O=C(NC(Cc1ccccc1)C(=O)O)OCc1cc2cc(-c3ccncc3)ccc2o1` (stereo not drawn) [Compound 174, 3-phenyl-2-(5-pyridin-4-yl-benzofuran-2-ylmethoxycarbonylamino)-propionic acid], the melting point lay in the range of 119 to 121 °C.

Take `O=C(NC(Cc1ccccc1)C(=O)O)OCc1cc2cc(-c3cncnc3)ccc2o1` (stereo not drawn) [Compound 175, 3-phenyl-2-(5-pyrimidin-5-yl-benzofuran-2-ylmethoxycarbonylamino)-propionic acid]: the melting point lay within 192 to 192.5 °C.

On to `O=C(NC(Cc1ccncc1)C(=O)O)OCc1cc2cc(-c3ccc(F)cc3)ccc2o1` (stereo not drawn) [Compound 176, 2-[5-(4-fluoro-phenyl)-benzofuran-2-ylmethoxycarbonylamino]-3-pyridin-4-yl-propionic acid], for which the melting point lay in the range of 255.2 to 255.7 °C.

The compound `O=C(NC(Cc1ccc(F)cc1)C(=O)O)OCc1cc2cc(-c3cc(Cl)cc(Cl)c3)ccc2o1` (stereo not drawn) [Compound 177, 2-[5-(3,5-dichloro-phenyl)-benzofuran-2-ylmethoxycarbonylamino]-3-(4-fluoro-phenyl)-propionic acid] returned a melting point of 101.1 to 103.2 °C.

Compound `O=C(NC(CNc1ccccc1)C(=O)O)OCc1ccc(-c2ccccc2)cc1` (stereo not drawn) [Compound 179, 2-(biphenyl-4-ylmethoxycarbonylamino)-3-phenylamino-propionic acid] showed a melting point of 143 to 146 °C.

Compound `COc1ccc(NCC(NC(=O)OCc2ccc(-c3ccccc3)cc2)C(=O)O)cc1` (stereo not drawn) [Compound 180, 2-(biphenyl-4-ylmethoxycarbonylamino)-3-(4-methoxy-phenylamino)-propionic acid] returned a melting point of 152.6 to 154.8 °C.

For the compound `O=C(NC(Cc1ccccc1)C(=O)O)OCc1ccc(NC(=O)c2ccccc2)cc1` (stereo not drawn) [Compound 181, 2-(4-benzoylamino-benzyloxycarbonylamino)-3-phenyl-propionic acid], the melting point lay in the range of 196.9 to 198.1 °C.

Take `O=C(NC(Cc1ccccc1)C(=O)O)OCc1ccc(C#Cc2ccccc2)cc1` (stereo not drawn) [Compound 182, 3-phenyl-2-(4-phenylethynyl-benzyloxycarbonylamino)-propionic acid]: the melting point was in the range of 172.1 to 173.4 °C.

For the compound `O=C(NC(Cc1ccccc1)C(=O)O)OCc1ccc(CSc2ccccc2)cc1` (stereo not drawn) [Compound 183, 3-phenyl-2-(4-phenylsulfanylmethyl-benzyloxycarbonylamino)-propionic acid], the melting point lay in the range of 113.3 to 114.1 °C.
